The values below come from paper PMC5902538, “Metabolic benefits of 1-(3-(4-(o-tolyl)piperazin-1-yl)propyl)pyrrolidin-2-one: a non-selective α-adrenoceptor antagonist” (Journal of Endocrinological Investigation, 2017).

A word on the IC50: it is the concentration that inhibits the measured activity by half. Read a low IC50 as greater potency.

What all share (type): cell-based
The target in one experiment is T1, α2B-adrenoceptor (Homo sapiens, UniProt P18089).
T1 construct: gene ADRA2B
T1 sequence (P18089 1-450): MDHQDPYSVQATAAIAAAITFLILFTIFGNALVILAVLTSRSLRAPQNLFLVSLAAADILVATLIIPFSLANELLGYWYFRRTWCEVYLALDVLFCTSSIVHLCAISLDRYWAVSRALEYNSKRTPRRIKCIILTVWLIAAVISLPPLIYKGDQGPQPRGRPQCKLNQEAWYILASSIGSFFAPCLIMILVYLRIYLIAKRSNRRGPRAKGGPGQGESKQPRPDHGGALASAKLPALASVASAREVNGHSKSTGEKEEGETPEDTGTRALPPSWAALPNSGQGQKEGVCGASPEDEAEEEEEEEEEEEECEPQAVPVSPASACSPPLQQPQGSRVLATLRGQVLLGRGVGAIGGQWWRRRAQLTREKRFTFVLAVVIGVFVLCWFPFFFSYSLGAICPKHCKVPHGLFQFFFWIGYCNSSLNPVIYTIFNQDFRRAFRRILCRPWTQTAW
Put plainly: intrinsic activity (antagonist) assay in ready-to-use cells stably expressing the receptor (Perkin Elmer).

The next experiment concerns the target T2, α1B-adrenoceptor (Homo sapiens, UniProt P35368).
T2 construct: gene ADRA1B
T2 sequence (P35368 1-520): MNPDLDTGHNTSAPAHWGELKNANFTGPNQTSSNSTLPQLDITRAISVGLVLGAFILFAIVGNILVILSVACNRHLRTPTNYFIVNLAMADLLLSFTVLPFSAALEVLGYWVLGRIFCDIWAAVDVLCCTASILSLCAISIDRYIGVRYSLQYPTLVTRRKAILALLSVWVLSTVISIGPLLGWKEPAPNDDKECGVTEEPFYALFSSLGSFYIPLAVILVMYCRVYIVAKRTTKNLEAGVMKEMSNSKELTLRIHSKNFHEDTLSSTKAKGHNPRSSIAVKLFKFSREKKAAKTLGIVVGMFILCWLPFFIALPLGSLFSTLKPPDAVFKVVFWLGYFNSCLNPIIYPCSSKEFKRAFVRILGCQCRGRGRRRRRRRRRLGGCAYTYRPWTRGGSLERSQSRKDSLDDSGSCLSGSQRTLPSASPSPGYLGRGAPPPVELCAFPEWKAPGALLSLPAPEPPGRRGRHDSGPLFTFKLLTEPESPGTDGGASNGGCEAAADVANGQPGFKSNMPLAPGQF
Described as above.

The next experiment has as its target T3, α1A-adrenoceptor (Homo sapiens, UniProt P35348).
T3 construct: gene ADRA1A
T3 sequence (P35348 1-466): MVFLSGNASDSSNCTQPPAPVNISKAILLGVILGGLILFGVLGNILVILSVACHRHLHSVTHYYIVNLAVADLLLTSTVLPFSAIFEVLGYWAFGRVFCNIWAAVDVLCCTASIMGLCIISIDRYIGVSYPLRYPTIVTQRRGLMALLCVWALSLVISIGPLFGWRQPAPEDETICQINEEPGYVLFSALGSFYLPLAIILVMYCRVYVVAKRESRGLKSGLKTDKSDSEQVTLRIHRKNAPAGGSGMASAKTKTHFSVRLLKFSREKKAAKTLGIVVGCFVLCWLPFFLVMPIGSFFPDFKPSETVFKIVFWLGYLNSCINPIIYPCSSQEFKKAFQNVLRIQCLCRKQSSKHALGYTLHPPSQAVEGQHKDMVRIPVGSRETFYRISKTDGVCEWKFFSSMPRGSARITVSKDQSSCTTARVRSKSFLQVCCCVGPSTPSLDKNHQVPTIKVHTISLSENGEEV
Kind of experiment: intrinsic activity (antagonist) assay in ready-to-use cells stably expressing the receptor (Invitrogen).

The next experiment addresses T4, α2A-adrenoceptor (Homo sapiens, UniProt P08913).
T4 construct: gene ADRA2A
T4 sequence (P08913 1-465): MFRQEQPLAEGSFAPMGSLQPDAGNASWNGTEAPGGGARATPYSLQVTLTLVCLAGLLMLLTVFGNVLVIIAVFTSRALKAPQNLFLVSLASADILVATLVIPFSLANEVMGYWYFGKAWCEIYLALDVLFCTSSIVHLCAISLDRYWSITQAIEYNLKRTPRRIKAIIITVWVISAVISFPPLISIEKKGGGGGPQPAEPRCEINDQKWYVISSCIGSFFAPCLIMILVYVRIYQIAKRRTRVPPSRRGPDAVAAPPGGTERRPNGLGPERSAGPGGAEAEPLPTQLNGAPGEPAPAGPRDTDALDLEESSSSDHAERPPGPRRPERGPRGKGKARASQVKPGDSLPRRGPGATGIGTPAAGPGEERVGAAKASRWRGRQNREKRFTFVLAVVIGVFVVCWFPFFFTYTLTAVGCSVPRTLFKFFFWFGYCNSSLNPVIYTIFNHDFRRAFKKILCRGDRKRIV
The description is as above.

In the case of `Cc1ccccc1N1CCN(CCCN2CCCC2=O)CC1` [EP-47, 1-(3-(4-(o-tolyl)piperazin-1-yl)propyl)pyrrolidin-2-one], the half-inhibitory concentration (IC50) came to 2070 ± 690 nM at α2B-adrenoceptor, 32.6 ± 0.69 nM at α1B-adrenoceptor, 42.5 ± 11.2 µM against α1A-adrenoceptor and 213 ± 32 nM at α2A-adrenoceptor.
